“Also recorded” adds a separate entry of the source.

One assay concerns DUX4 inducible cell line. Nature of the assay: Cell death assay: caspase fluorescence (FITC) in DUX4 inducible cell line after doxycycline. It is filed as cell-based. Conditions: after 48 hours of doxycycline treatment. The method, then: FIG. 17A includes a series of micrographs. Fluorescence from labeled caspase is visible (fluorescein isothiocynate (FITC)) in a DUX4 inducible cell line after 48 hours of doxy cy cline treatment.
Cell death assay were then used to validate single knock-outs cell lines (FIGS. 17A-17C).

The test system of assay [1] is FSHD biomarkers MBDL3L3, TRIM42 and ZSCAN4. Nature of the assay: Quantitative real-time PCR of FSHD biomarkers in patient myotubes. The format is cell-based, human. The method, then:
One common way to test potential therapies for FSHD is to measure a reduction in FSHD biomarker genes (FIG. 16B). […] Briefly, patient primary myoblasts (17A and 16A) were placed in differentiation media. At day four, drug compounds were added, and myotubes were harvested 24 hours later. RNA extraction and cDNA synthesis was performed. Quantitative real-time PCR for FSHD biomarkers levels of MBDL3L3, TRIM42 and ZSCAN4 was performed. Results indicated a significant reduction in biomarker levels for the majority of drugs tested.
Background: Quantitative PCR measures a nucleic acid by following its amplification.

The subject of another assay is DUX4-injected zebrafish. Nature of the assay: DUX4-injected zebrafish model of FSHD. The format is in vivo. Conditions: drug 24 hr post-injection; day 7; compared to DUX4-injected no drug control group. The text has this:
FSHD has proven to be a difficult disease to model in animals given the primate-specific origins of DUX4, its sporadic activation and mosaic expression, as well as the complex epigenetic components associated with the disease. Our published DUX4 zebrafish model was the first to recapitulate the muscle-eye-ear combination of phenotypes described in human FSHD (FIGS. 1N-A, 1N-B, 1N-C). […] These established DUX4 models of FSHD provide for functional follow-up experiments for candidate genes identified in CRISPR screens.
Drugs that show efficacy in vitro can be tested in a zebrafish model of FSHD. […] After injecting DUX4 into zebrafish, the test subjects were then treated with the four drug compounds 24 hr post-injection. Injected fish were categorized into affected or unaffected groups based on whole-body phenotype (FIG. 18A).

The next assay deals with DUX4 toxicity. Nature of the assay: Caspase 3/7 activity assay (luciferase read-out) of DUX4-induced cell death. It is filed as cell-based, human. An excerpt: FIGS. 14A and 14B illustrate a method for assaying cell death. FIG. 14A is a schematic diagram showing a method for assaying cell death by measuring Caspase 3/7 activity using a luciferase read-out.
FIG. 14B presents graphical data generated from the doxycycline-inducible assay.
The DUX4 gene encodes a transcription factor whose expression is rare, but extremely toxic. DUX4 transcription factor controls more than 100 early developmental genes. Misexpression of DUX4 is hypothesized to induce inappropriate expression of downstream genes to cause disease pathogenesis. […] Non-manifesting carriers of FSHD alleles who are found to express DUX4, point to the existence of genetic modifiers that may act to suppress DUX4 toxicity. The clinical, histopathological and molecular evidence for asymptomatic/non-manifesting carriers of FSHD is provided at FIGS. 1A-1F. As reported herein below, a genome-wide CRISPR loss-of-function library was used to identify genes that modulate DUX4 induced toxicity and act as genetic modifiers of FSHD (FIG. 1M). This powerful resource has enabled the assessment of the impact of all loss-of-function gene edits across the entire genome. This approach permitted the isolation of genes that influence survivability of DUX4 toxicity. These genes were validated in vitro by generation of individual knock-out lines, using a Caspase-3/7 assay to quantify reduced DUX4-induced apoptosis, and using inhibitor compounds to mimic gene knock-outs. These genes are also being evaluated in vivo.
The abundance of sgRNAs in each of the LOF cell lines was measured (FIG. 12). Each sgRNA is specific to the gene. Single gene knock-outs were generated using a lenti-CRISPR plasmid. […] To determine whether the results observed with Hif1a knockout could be recapitulated using an inhibitor of Hif1a, experiments with small compound inhibitors were carried out (FIGS. 15A, 15B, 16C, 16D). […] Herbimycin A is a benzoquinone drug (used for anti-cancer treatment) that binds and inhibits heat shock protein 90 (HSP90) chaperone (tyrosine kinase inhibitor) and is known to deplete dephosphorylated HIF1a. […]

Take `CO[C@H]1[C@@H](OC)C[C@H](C)[C@@H](OC)C2=CC(=O)C=C(NC(=O)/C(C)=C/C=C\[C@H](OC)[C@@H](OC(N)=O)/C(C)=C/[C@@H]1C)C2=O` [Herbimycin A]: in the assay with DUX4 inducible cell line, the caspase fluorescence result is listed as “reduced caspase fluorescence”. For the same compound, in assay [1], the “efficacy in patient cell lines” value is listed as “efficacy”. Also, the “percentage of affected fish (whole-body phenotype)” value in the assay with DUX4-injected zebrafish is given as “significantly reduced; also recorded: significantly decreased percentage of affected fish”. The “suppression of DUX4 toxicity” value with DUX4 toxicity (20 uM) is “good suppression of DUX4 toxicity”. Moreover, the “efficacy in vitro measured by caspase 3/7 activity” value in the assay on DUX4 toxicity is “showed efficacy in vitro”.
As to `O=c1cc(N2CCOCC2)oc2c(-c3ccccc3)cccc12` [LY294002, Ly294002], in the assay on DUX4 inducible cell line, the caspase fluorescence result is given as “reduced caspase fluorescence”. In assay [1], the “efficacy in patient cell lines” value is “efficacy”. Besides, in the assay with DUX4 toxicity, the “efficacy in vitro measured by caspase 3/7 activity” value is recorded as “showed efficacy in vitro”.
Take `COC(=O)c1ccc(O)c(NC(=O)COc2ccc(C34CC5CC(CC(C5)C3)C4)cc2)c1` [Hif1a inhibitor]: the “FSHD biomarker levels (MBDL3L3, TRIM42, ZSCAN4)” value in assay [1] (patient primary myoblasts 16A and 17A, drug added at day four of differentiation, harvested 24 hours later) is on record as “Dose-response reduction of biomarkers”.

The values are drawn from patent US11674140B2, “Compositions and methods for treating facioscapulohumeral dystrophy” (THE CHILDREN'S MEDICAL CENTER CORPORATION, priority 2017, dated 2023).
